Series [1] is described as follows: Solubility in aqueous solvent. The series is classed as physicochemical. To be noted: 25° C. Here is the method:
Experiment 4: Solubility in Aqueous Solvent The solubility in an aqueous solvent of the present compound was measured, and the results as shown in Table 4 were obtained. The pH value in Table 4 is a pH value of a solution of the present compound in distilled water.

The test system of series [2] is pulmonary hemorrhage induced by human neutrophilic elastase. Description: Inhibitory activity on pulmonary hemorrhage induced by human neutrophilic elastase in hamsters. To be noted: hamster.
Description: When human neutrophilic elastase is administered intratracheally to a hamster, the hemorrhage is induced in the lung. Hemoglobin is detected in the broncho-alveolar lavage fluid, which is obtained by washing the lung via bronchi at a fixed period after the elastase administration. In order to examine how much this hemorrhage can be inhibited by the present compound, this experiment was carried out by measuring the concentration of this hemoglobin.
Hamsters (male Syrian strain, 8-10 weeks old) were grouped into the following three groups (5 animals per group), and the following treatment was carried out on each group.
(A) Vehicle-Treated Control Group (Non-Treatment Group):
The result of the measurement was counted as A.
(B) Human Neutrophilic Elastase-Treated Group (Without the Present Compound):
Human neutrophilc elastase (25 units, manufactured by Elastin Products, Inc.) was dissolved in physiological saline solution (0.2 ml), and the solution thus obtained was administered to the hamsters at the bronchial tube to induce the pulmonary hemorrhage. One hour after the administration of elastase, the concentration of hemoglobin in the broncho-alveolar lavage fluid was measured in the same manner as in Group (A). The result of the measurement was counted as B.
(C) Human Neutrophilic Elastase-Treated Group (with the Present Compound):
A fixed amount of the present compound was administered to the hamsters in the form of a phosphate-buffered saline solution (pH 7.4) in the manner as described below. Then, human neutrophilic elastase was administered to the hamsters in the same manner as the above. One hour after the administration of elastase, the concentration of hemoglobin in the washing of the broncho-alveolar lavage was measured in the same manner as in Group (A). The result of the measurement was counted as C.
Administration Method of the Present Compound:
The administration of the present compound to the hamsters was carried out by two kinds of methods. One of them is a method of intravenous bolus-administration of the solution containing the present compound 5 minutes prior to the elastase administration. Another method is a method of intravenous infusion of the solution containing the present compound for a period of 70 minutes beginning at 10 minutes prior to the elastase administration.
The next series deals with Std:ddy mice. The series is classed as in vivo. To be noted: intravenous administration 300 mg/kg, 24 hours after administration. The source says:
Experiment 3: Acute Toxicity Test in Mice
Twenty-four hours after the administration, the animals were observed if dead or alive.
*: Number of survived animals/number of tested animals

In series [3] the target is T1, Human neutrophilic elastase (Homo sapiens, UniProt P08246).
T1 construct: purchased Sigma
T1 sequence (P08246 30-267): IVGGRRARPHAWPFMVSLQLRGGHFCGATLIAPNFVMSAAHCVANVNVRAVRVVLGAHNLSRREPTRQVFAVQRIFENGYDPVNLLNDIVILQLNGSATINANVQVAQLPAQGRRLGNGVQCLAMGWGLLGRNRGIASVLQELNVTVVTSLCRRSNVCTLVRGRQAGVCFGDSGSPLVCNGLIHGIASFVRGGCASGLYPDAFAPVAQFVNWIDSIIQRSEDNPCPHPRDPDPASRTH
The series can be described thus: Human neutrophilic elastase inhibitory activity in vitro (fluorogenic substrate). The conditions noted are these: 37° C., pH 7.5. Type of series: biochemical. Here is the method:
Experiment 1: Human Neutrophilic Elastase Inhibitory Activity
In the present experiment, the inhibitory activity of the present invention against human neutrophilic elastase was studied in vitro.
The resulting solution (210 μl) was mixed with a 10^−8-10^−5 M solution of the present compound (40 μl), and the mixture was pre-incubated at 37° C. for 6 minutes. To this solution, 4 mM succinyl-alanyl-prolyl-alanine 4-methyl-coumaryl-7-amide (substrate solution, Peptide Institute Inc.) (50 μl) and distilled water (100 μl) were added, and the mixture was further reacted at 37° C. for 20 minutes. The concentration of the 7-amino-4-methylcoumarine thus obtained was measured fluorimetrically by monitoring at an excitation wave length of 380 nm and a fluorescent wave length of 460 nm.
The above “Bri j-35” means polyoxyethylene (23) lauryl ether, and the “HEPES” means N-(2-hydroxyethyl)piperazine-N′-(2-ethane-sulfonic acid).
In the following equation, A means the intensity of fluorescence when a present compound is added, and B means the intensity of fluorescence when a present compound is not added.
Inhibitory Rate (%)=(1−A/B)×100

Setting [4] is: distilled water, pH of the solution given beside each value, read-out: Solubility, Water.
[5] abbreviates: aqueous buffer, 0.1 M phosphate buffer pH 7.4, read-out: Solubility, 0.1 M Phosphate buffer (pH 7.4).
[6] abbreviates: intravenous bolus administration 3 mg/kg, 5 minutes prior to elastase.
The mark [7] stands for this setting: intravenous bolus administration 10 mg/kg, 5 minutes prior to elastase.
Where [8] appears, read: intravenous infusion 1 mg/kg/hr for 70 minutes.
[9] abbreviates: intravenous infusion 3 mg/kg/hr for 70 minutes.
Where [10] appears, read: intravenous infusion 10 mg/kg/hr for 70 minutes.

In brackets after ≈: the same amount, converted by molar mass. Read-outs that look alike come from different tables or passages of the source.

Consider `CC(C)(C)C(=O)Oc1ccc(S(=O)(=O)Nc2ccccc2C(=O)NCC(=O)O)cc1` [Control (a), reference compound], for which the solubility – broadly, the dissolved amount per volume that the medium holds – is 0.012 mg/mL (≈ 0.0276 mM) in series [1] (setting [4]) and around 20 mg/mL (≈ 46 mM) in series [1] (setting [5]). For the same compound, the Hemorrhage inhibitory rate in series [2] (intravenous bolus administration 100 mg/kg (control dose row)) stood at 74%; in series [2] (intravenous infusion 10 mg/kg/hr (control dose row)), 18%; in series [2] (intravenous infusion 100 mg/kg/hr (control dose row)), 60%.

In the case of `CC(C)[C@H](NC(=O)CN1CCN(CC(=O)O)C1=O)C(=O)N1CCC[C@H]1C(=O)N[C@H](C(=O)C(F)(F)F)C(C)C` [I-b-1, 2-(3-carboxymethyl-2-oxo-1-imidazolidinyl)acetyl-L-valyl-N-[(1S)-3,3,3-trifluoro-1-isopropyl-2-oxopropyl]-L-prolinamide], the solubility in series [1] (setting [4]) and in series [1] (setting [5]) was above 1000 mg/mL throughout. Also, in the series on Std:ddy mice, the “Livability (number of survived animals/number of tested animals)” value is reported as 6/6.

As to `CC(C)[C@H](NC(=O)[C@@H]1CCCN1C(=O)[C@@H](NC(=O)Cn1ccc(=O)n(CC(=O)O)c1=O)C(C)C)C(=O)c1nc2ccccc2o1` [I-b-2, 2-(3-carboxymethyl-2,4-dioxo-1-pyrimidinyl)acetyl-L-valyl-N-[(1S)-2-(2-benzoxazolyl)-1-isopropyl-2-oxoethyl]-L-prolinamide], the solubility in series [1] (setting [4]) is 5 mg/mL (≈ 8 mM); in series [1] (setting [5]) it was above 100 mg/mL. In addition, the “Livability (number of survived animals/number of tested animals)” value in the series with Std:ddy mice was 6/6.

Take `CC(C)[C@H](NC(=O)[C@@H]1CCCN1C(=O)[C@@H](NC(=O)Cn1ccc(=O)n(CC(=O)O)c1=O)C(C)C)C(=O)C(=O)NCc1ccccc1` [I-b-3, 2-(3-carboxymethyl-2,4-dioxo-1-pyrimidinyl)acetyl-L-valyl-N-[(1S)-3-benzylamino-1-isopropyl-2,3-dioxopropyl]-L-prolinamide]: the solubility in series [1] (setting [4]) is 8.7 mg/mL (≈ 13.6 mM); in series [1] (setting [5]), above 100 mg/mL. The “Livability (number of survived animals/number of tested animals)” value in the series with Std:ddy mice is recorded as 6/6.

For the compound `CC(C)[C@H](NC(=O)CN1C(=O)CN(CC(=O)O)C1=O)C(=O)N1CCC[C@H]1C(=O)N[C@H](C(=O)C(F)(F)F)C(C)C` [I-b-7, 2-(3-carboxymethyl-2,5-dioxo-1-imidazolidinyl)acetyl-L-valyl-N-[(1S)-3,3,3-trifluoro-1-isopropyl-2-oxopropyl]-L-prolinamide], the Hemorrhage inhibitory rate in series [2] (setting [6]) worked out at 50%; in series [2] (setting [7]), 64%; in series [2] (setting [8]) it was 51%; in series [2] (setting [9]) it was 53%; in series [2] (setting [10]) it was 72%. The 50% inhibitory concentration (IC50) (usually the concentration that inhibits the measured activity by half) in series [3] worked out at 82 nM.

`CC(C)[C@H](NC(=O)[C@@H]1CCCN1C(=O)[C@@H](NC(=O)CC(=O)N1CCN(CC(=O)O)C(=O)C1)C(C)C)C(=O)c1nc2ccccc2o1` [I-b-10]: the Hemorrhage inhibitory rate turned out to be 32% in series [2] (setting [6]); 76% in series [2] (setting [7]); 52% in series [2] (setting [8]); 69% in series [2] (setting [9]); 92% in series [2] (setting [10]). The IC50 in series [3] was 45 nM.
